Data published in US8853188B2, “Compositions and methods for cancer treatment” (Women and Infants Hospital of RI, Inc., priority 2005, dated 2014).
“Also recorded” adds a separate entry of the source.

Assays:
Type in all cases: cell-based
[1] = system: SK-N-SH, SH-Sy5Y, SMS-KCN and SMS-R neuroblastic cells; test: Viability and proliferation of neuroblastoma cells, 48 hrs; design: inhibition of proliferation: dose or concentration left out as unconfirmed
Experimental: (§1) Materials and methods. Proliferation was measured by MTS and BrdU incorporation assays. Apoptosis was assessed by DNA fragmentation, Cell Death Detection ELISA and caspase-3-assays. Effect of B3CD on TrkB signaling by BDNF was assessed by Western Blot analysis of AKT and ERK phosphorylation. The effect on angiogenesis was determined by chick chorioallantoic membrane (CAM) assay and aortic ring assay.
(§2) Neuroblastoma cells were treated with B3CD for 48 hrs. […] AT 0.5 nM, B3CD inhibited >50% (p<0.035) and >90% at […] (p<0.01) viability and proliferation respectively.

[2] = system: skin cells; test: Proliferation (MTS, BrdU), FIG. 3
Experimental: as §1
(§3) B3CD was tested on the panel of cell described above. […] Such cell-type specificity is not uncommon. […] However, keratinocytes were not affected by B3CD (FIG. 4A; Lane-2). In addition, caspase-3 activity was increased by B3CD (FIG. 4B). These studies indicated an underlying apoptotic mechanism in the anticancer activity of B3CD.

[3] = system: osteosarcoma cells; test: Proliferation (MTS, BrdU), FIG. 3
Experimental: as §1, §3

[4] = system: endothelial cells; test: Proliferation (MTS, BrdU), FIG. 3
Experimental: as §1, §3

[5] = system: prostate cancer cells; test: Proliferation (MTS, BrdU), FIG. 3
Experimental: as §1, §3

[6] = system: breast cells; test: Proliferation (MTS, BrdU), FIG. 3
Experimental: as §1, §3

[7] = system: smooth muscle cells; test: Proliferation (MTS, BrdU), FIG. 3
Experimental: as §1, §3

[8] = system: neuroblastic cells; test: Proliferation (MTS, BrdU), FIG. 3
Experimental: as §1, §3

[9] = system: ovarian cancer cells; test: Proliferation (MTS, BrdU), FIG. 3
Experimental: as §1, §3

[10] = system: TrkB signaling by BDNF; test: Effect on TrkB signaling by BDNF (Western Blot); settings: neuroblastoma cells
Experimental: as §1, §2

## C=C1CC[C@H](OC(=O)CBr)C/C1=C/C=C1\CCC[C@]2(C)[C@@H]([C@H](C)CCCC(C)(C)O)CC[C@@H]12 [B3CD, bromoacetic acid 3-{2-[1-(5-hydroxy-1,5-dimethyl-hexyl)-7a-methyl-octahydro-inden-4-ylidene]-ethylidene}-4-methylene-cyclohexyl ester]
[1]
  inhibition of proliferation (in words): dose dependent manner
[1]; Neuroblastoma cell, 0.5 nM, p<0.035, read-out: inhibition of viability
  cytotoxicity at 0.0005 µM: > 50%
[1]; p<0.01
  inhibition of proliferation: > 90%
[2]
  effect on proliferation: did not show an effect on proliferation
[3]
  effect on proliferation: did not show an effect on proliferation
[4]
  antiproliferative and cytotoxic effects: potent antiproliferative and cytotoxic effects; also recorded: inhibit proliferation
[5]
  antiproliferative and cytotoxic effects: potent antiproliferative and cytotoxic effects
[6]
  effect on proliferation: did not show an effect on proliferation
[7]
  effect on proliferation: did not show an effect on proliferation
[8]
  antiproliferative and cytotoxic effects: potent antiproliferative and cytotoxic effects
[8]; by 24 hours
  cell viability: less than 15 % of the untreated control cells
[9]
  antiproliferative and cytotoxic effects: potent antiproliferative and cytotoxic effects
[10]
  TrkB signaling by BDNF: inhibited
